The results in this text go back to patent US20070255357A1, “NASAL DECO[…] MICROBES” (Ondine International, Ltd., priority 2006, published 2007).

For one experiment, the system named is biofilms of MRSA. In words: Photodisinfection of MRSA biofilms in vitro (methylene blue + Periowave laser). Type of experiment: cell-based, Methicillin-resistant Staphylococcus aureus. The note with it: biofilm; for reduction of MRSA: at least 0.02 wt % methylene blue, laser about 665-675 nm for at least 15 seconds (at least 2.25 J/cm^2). An excerpt: (§1) Photodisinfection treatments using methods contemplated by the present invention have been tested against MRSA, Escherichia coli (E. coli), and Enterococcus fecalis (E. fecalis) in vitro and reached high levels of disinfection in within seconds to one minute. Photosensitizing composition comprising of methylene blue at various concentrations ranging from about 0.005 wt % to 0.1 wt % was applied to biofilms of MRSA, E. coli and E. fecalis for about ten seconds. These biofilms were then illuminated by a laser light system at a wavelength of about 665 nm to about 675 nm for a period from about 0 seconds to about 60 seconds (e.g., accumulated energy level of about 0 J/cm^2 to about 9 J/cm^2). The laser light system used was the Periowave™ system which includes a low-intensity laser with power at about 240 mW and the optical probe described in PCT Patent Publication No. WO2006115761.

A further experiment has as its system biofilms of E. coli. Kind of experiment: Photodisinfection of E. coli biofilms in vitro (methylene blue + Periowave laser). The settings on record: biofilm; for reduction of E. coli: at least 0.02 wt % methylene blue, laser about 665-675 nm for at least 15 seconds (at least 2.25 J/cm^2). Type of experiment: cell-based, Escherichia coli.
Text: as §1

Another experiment has as its system biofilms of E. fecalis. Kind of experiment: Photodisinfection of E. fecalis biofilms in vitro (methylene blue + Periowave laser). In kind it is cell-based, Enterococcus fecalis. The note with it: biofilm.
Text: as §1

For a further experiment, the system named is MRSA biofilms. Kind of experiment: SEM evaluation of MRSA biofilms after photodisinfection. Type of experiment: cell-based, Methicillin-resistant Staphylococcus aureus. The note with it: about 0.1 wt % methylene blue, about 10 s contact; about 665-675 nm for about 30 seconds, Periowave laser; FIG. 34 vs FIG. 33. How it is done: Biofilms heavily colonized with one to four layers of MRSA organisms were contacted with a photosensitizing composition comprising methylene blue at a concentration of about 0.1 wt % for about 10 seconds and then illuminated at a wavelength of about 665 nm to about 675 nm for a period from about 30 seconds using the Periowave™ laser. Thereafter, these biofilms and the controlled MRSA biofilms (e.g., no photodisinfection treatment) were incubated overnight in 0.9 wt % saline and then fixed in 10 wt % Formalin for scanning electron microscope (SEM) evaluation.

The next experiment concerns E. coli biofilms. Kind of experiment: SEM evaluation of E. coli biofilms after photodisinfection. The settings on record: about 0.1 wt % methylene blue, about 10 s contact; about 665-675 nm for about 30 seconds, Periowave laser; FIG. 36 vs FIG. 35. Type of experiment: cell-based, Escherichia coli. Here is the method: Biofilms heavily colonized with one to three layers of Escherichia coli (E. coli) organisms were contacted with a photosensitizing composition comprising methylene blue at a concentration of about 0.1 wt % for about 10 seconds and then illuminated at a wavelength of about 665 nm to about 675 nm for a period from about 30 seconds using the Periowave™ laser. Thereafter, these biofilms and the controlled E. coli biofilms (e.g., no photodisinfection treatment) were incubated for three hours in 0.9% saline and then fixed in 10% Formalin for scanning electron microscope (SEM) evaluation.

In experiment [1] the test system is otitis externa. In words: Study on patients suffering otitis externa (photodisinfection). Type of experiment: in vivo, human. How it is done: A study was conducted on patients suffering otitis externa. During the study, a photosensitizing composition comprising of methylene blue at a concentration of about 0.01 wt % was applied using a cotton swab to the treatment site as shown in FIG. 37. Thereafter and referring to FIGS. 38-39, light at a wavelength range from about 665 nm to about 675 nm was applied to the photosensitizing composition located within the treatment site 64 for a period from about 3 minutes to about 5 minutes (3-5 repetitive one minute cycles) using the Periowave™ laser light system.

The subject of experiment [2] is otitis externa. Kind of experiment: Photodisinfection of otitis externa treatment site (Examples V to VII). In kind it is in vivo. How it is done:
A photosensitizing composition comprising of methylene blue at a concentration of about 0.1 wt % is applied to the otitis externa treatment site. Light at a wavelength range from about 650 nm to about 680 nm is applied to the photosensitizing composition located within the otitis externa treatment site for a period from about 6 minutes to about 10 minutes using a laser with power at about 80 mW. The otitis externa was ameliorated.
A photosensitizing composition comprising of methylene blue at a concentration range of from about 0.001 wt % to about 0.1 wt % is applied to the otitis externa treatment site. Light at a wavelength range from about 650 nm to about 680 nm is applied to the photosensitizing composition located within the treatment site for a period from about 1 minute to about 20 minutes using a laser with power at a range from about 50 mW to about 300 mW. The otitis externa was ameliorated.
A photosensitizing composition comprising of toluidine blue at a concentration range of from about 0.001% wt % to about 0.1 wt % is applied to the otitis externa treatment site. Light at a wavelength range from about 620 nm to about 650 nm is applied to the photosensitizing composition located within the otitis externa treatment site for a period from about 1 minute to about 20 minutes using a laser with power at a range from about 50 mW to about 300 mW. The otitis externa was ameliorated.
For Examples V to VII, it was shown that there is a general inverse relationship between (1) the photosensitizer concentration and (2) the photodisinfection treatment time and/or the amount of power required for the light source. For example, higher concentration of photosensitizer requires less treatment time and/or lower light source power. Conversely, lower concentration of photosensitizer requires longer treatment time and/or higher light source power. Also, less treatment time requires higher concentration of photosensitizer and/or higher light source power.

The mark [3] stands for this setting: methylene blue about 0.02-0.1 wt % and a low power laser (about 240 mW).

For `CN(C)c1ccc2nc3ccc(=[N+](C)C)cc-3sc2c1` [methylene blue], the “reduction of MRSA” value in the experiment with biofilms of MRSA (about 10 s contact) was “at least three”; in the experiment on biofilms of MRSA it was “over 90%”. Moreover, the “elimination of MRSA by photodisinfection” value in the experiment with biofilms of MRSA (setting [3]) is on record as “effectively eliminated”. Also, the “reduction of E. coli” value in the experiment on biofilms of E. coli (about 10 s contact) is reported as “at least three”; in the experiment on biofilms of E. coli, “over 90%”. The “elimination of E. coli by photodisinfection” value in the experiment with biofilms of E. coli (setting [3]) is “effectively eliminated”. Moreover, the “reduction of E. fecalis” value in the experiment with biofilms of E. fecalis (at least 0.02 wt % methylene blue, laser about 665-675 nm for at least 15 seconds (at least 2.25 J/cm^2)) was “over 90%”. Besides, the “elimination of E. Fecalis by photodisinfection” value in the experiment with biofilms of E. fecalis (setting [3]) is given as “effectively eliminated”. The “reduction of MRSA in SEM photograph vs controlled biofilm” value in the experiment with MRSA biofilms is given as “substantial reduction of MRSA”. Moreover, the “reduction of E. coli in SEM photograph vs controlled biofilm” value with E. coli biofilms is “substantial reduction of E. coli”. Further, in the experiment with otitis externa [1] (patients with severe otitis externa, about 2 to 5 additional treatments, same protocol, over about one to two weeks), the “outcome of severe otitis externa” value was “also ameliorated”. Further, the “outcome of otitis externa” value in the experiment on otitis externa [1] (patients, about 0.01 wt % methylene blue by cotton swab, about 665-675 nm for about 3-5 minutes, Periowave laser, many patients) is recorded as “ameliorated”; in the experiment with otitis externa [2] (Example V: about 0.1 wt % methylene blue, about 650-680 nm for about 6-10 minutes, laser about 80 mW), “ameliorated”; with otitis externa [2] (Example VI: about 0.001-0.1 wt % methylene blue, about 650-680 nm for about 1-20 minutes, laser about 50-300 mW), “ameliorated”.
Turning to `Cc1cc2nc3ccc(N(C)C)cc3[s+]c2cc1N.[Cl-]` [toluidine blue], the “outcome of otitis externa” value in the experiment with otitis externa [2] (Example VII: about 0.001-0.1 wt % toluidine blue, about 620-650 nm for about 1-20 minutes, laser about 50-300 mW) is listed as “ameliorated”.
